Experimental data reported in patent publication US9084904B2, “Composition for external application” (OTSUKA PHARMACEUTICAL CO., LTD., priority 2008, dated 2015).

System: JB6 CL 41-5A Cell Line, mouse epidermis
Experiment: Influence of glucose on the intracellular ATP generation-promotion effect of AMP in cultured mouse epidermal cells (ATPlite luminescence)
Type: cell-based
Details: AMP 1 mM, 2 h
Description: The following reports a test for examining the influence of glucose on the intracellular ATP generation-promotion effect given by AMP. Cultured mouse epidermal cells were used in the test.
Cells: JB6 CL 41-5A Cell Line, mouse epidermis
Culture medium: an MEM medium containing 5% FCS (Fetal Calf Serum)
MEM medium (Nacalai Tesque), Fetal calf serum (GIBCO) AMP: disodium adenosine monophosphate (Yamasa Corporation)
Glucose: D-glucose (Wako Pure Chemical Ind. Ltd.)
ATP measurement: “ATPlite” Luminescence Assay System (Perkin Elmer)
Microplate luminescence reader Anthos Lucy 1 (Aloka Co., Ltd.)
Cultured mouse epidermal cells were inoculated in a 96-well microplate in an amount of 5.8×10^3 cells per well. After two hours, the medium was replaced with another culture medium containing a test sample of a predetermined quantity. After another two hours, the medium was removed, and the amount of ATP was measured.
In the following experiment example, the content of glucose was 100 mg/dL, based on the fact that the normal fasting blood-sugar level of a living body is generally about 70 to 100 mg/dL.
Three concentrations (101, 110, 200 mg/dL) of glucose were added to a normal culture medium (containing 100 mg/dL of glucose) so as to examine how each concentration affects the ATP generation-promotion effect of AMP (1 mM). […] The addition of glucose with a concentration of 110 mg/dL increased ATP generation by 25%, based on the concentration of 100 mg/dL that corresponds to the normal fasting blood-sugar level.
Based on the result of Experiment Example 1, another experiment was performed as follows so as to confirm the influence of the glucose addition on the ATP generation-promotion effect of AMP by ensuring the increase of ATP generation by AMP (1 mM) when the glucose content is 101 mg/dL and 110 mg/dL, and ensuring the decrease of ATP generation by AMP (1 mM) when the glucose content is 200 mg/dL or higher.

[1] = Experiment Example 2, glucose 600 mg/dL

Nc1ncnc2c1ncn2[C@@H]1O[C@H](COP(=O)([O-])[O-])[C@@H](O)[C@H]1O.[Na+].[Na+] [AMP, disodium adenosine monophosphate]
increase of ATP generation (Experiment Example 1, glucose 110 mg/dL, based on 100 mg/dL glucose): 25%
ATP generation (Experiment Example 1, glucose 200 mg/dL): lower than when the glucose content was 110 mg/dL and AMP was 1 mM
ATP generation (Experiment Example 1, glucose content increased from 101 to 110 mg/dL): ATP generation increased
increase of ATP generation (Experiment Example 2, glucose 101 mg/dL): ≥ 30%
increase of ATP generation (Experiment Example 2, glucose 110 mg/dL): ≥ 30%
ATP generation (Experiment Example 2, glucose 200 mg/dL): lower than when the glucose content was 100 mg/dL and AMP was 1 mM
ATP generation compared with AMP-free medium containing 100 mg/dL glucose [1]: not significantly lower
ATP generation-promotion effect of AMP [1]: small
